Data taken from PubChem BioAssay (NCI).
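At the GI50, growth is halved. TGI: total growth inhibition.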

Key:
Assay in all cases: growth of human tumour cells (NCI), 384-well format
HCC-2998 colon = test system: HCC-2998 colon
ACHN renal = test system: ACHN renal
U251 glioblastoma = test system: U251 glioblastoma
OVCAR-8 ovarian = test system: OVCAR-8 ovarian
EKVX NSCLC = test system: EKVX NSCLC
MOLT-4 leukemia = test system: MOLT-4 leukemia
NCI/ADR-RES ovarian = test system: NCI/ADR-RES ovarian
NCI-H226 lung = test system: NCI-H226 lung
IGROV1 ovarian = test system: IGROV1 ovarian
SNB-19 CNS = test system: SNB-19 CNS
T-47D breast = test system: T-47D breast
786-0 renal = test system: 786-0 renal
BT-549 breast = test system: BT-549 breast

Cc1cc2c(C(C)C)c(O)c(O)c(C=O)c2c(O)c1-c1c(C)cc2c(C(C)C)c(O)c(O)c(C=O)c2c1O (tested in a mixture with another compound)
GI50 (HCC-2998 colon): 2.32 µM
TGI (HCC-2998 colon): 4.7 µM
GI50 (ACHN renal): 2.05 µM
TGI (ACHN renal): 4.66 µM
GI50 (U251 glioblastoma): 1.59 µM
TGI (U251 glioblastoma): 3.02 µM
GI50 (OVCAR-8 ovarian): 1.75 µM
TGI (OVCAR-8 ovarian): 3.24 µM
GI50 (EKVX NSCLC): 1.85 µM
TGI (EKVX NSCLC): 3.97 µM
GI50 (MOLT-4 leukemia): 0.765 µM
TGI (MOLT-4 leukemia): 2.01 µM
GI50 (NCI/ADR-RES ovarian): 1.83 µM
TGI (NCI/ADR-RES ovarian): 3.32 µM
GI50 (NCI-H226 lung): 1.63 µM
TGI (NCI-H226 lung): 3.03 µM
GI50 (IGROV1 ovarian): 1.95 µM
TGI (IGROV1 ovarian): 3.85 µM
GI50 (SNB-19 CNS): 1.25 µM
TGI (SNB-19 CNS): 2.92 µM
GI50 (T-47D breast): 1.7 µM
TGI (T-47D breast): 3.41 µM
GI50 (786-0 renal): 1.89 µM
TGI (786-0 renal): 3.61 µM
GI50 (BT-549 breast): 1.53 µM
TGI (BT-549 breast): 2.94 µM
